Measured values taken from patent publication US20080221013A1, “Neurobiological compositions” (priority 2006, published 2008).
Like-named read-outs stand apart in the source and are kept apart here.

Assays:
nAChRs = experiment: whole-cell patch clamp recordings of nicotine-induced currents in medial habenula neurons in brain slices; type: cell-based, mouse; conditions: for EC50: 250 ms nicotine pulse, 0.1 μM to 300 μM, read-out: EC50 of nicotine-induced current
pain sensitivity = conditions: lynx1 null mutant mice vs wild-type
seizure activity = conditions: lynx1 null mutant mice vs wt; single injection of nicotine
[1] = system: primary cortical cultures
Method: Cultured cells were then loaded with the Ca^2+ sensitive indicator fluo-3 and fluorescence measurements were obtained (FIG. 5A). […] Acute responses to nicotine were measured using fluorescence levels in real time.

striatum = conditions: drinking water from 8 months of age for 10 months
motor learning = conditions: 200 μg/ml nicotine in 2% saccharin
[2] = system: primary cortical cultures; remark: listed apart in the source
alpha4beta2 nAChRs = molecular target: T1, alpha4beta2 nAChRs (Homo sapiens, UniProt P17787+P43681); experiment: co-immunoprecipitation in transiently transfected HEK293 cells; type: binding; conditions: IP with nAChR antibodies, Western blot
T1 construct: expressed in transfected cells; host or cells: HEK293
T1 sequence (P43681 29-627 limits assumed): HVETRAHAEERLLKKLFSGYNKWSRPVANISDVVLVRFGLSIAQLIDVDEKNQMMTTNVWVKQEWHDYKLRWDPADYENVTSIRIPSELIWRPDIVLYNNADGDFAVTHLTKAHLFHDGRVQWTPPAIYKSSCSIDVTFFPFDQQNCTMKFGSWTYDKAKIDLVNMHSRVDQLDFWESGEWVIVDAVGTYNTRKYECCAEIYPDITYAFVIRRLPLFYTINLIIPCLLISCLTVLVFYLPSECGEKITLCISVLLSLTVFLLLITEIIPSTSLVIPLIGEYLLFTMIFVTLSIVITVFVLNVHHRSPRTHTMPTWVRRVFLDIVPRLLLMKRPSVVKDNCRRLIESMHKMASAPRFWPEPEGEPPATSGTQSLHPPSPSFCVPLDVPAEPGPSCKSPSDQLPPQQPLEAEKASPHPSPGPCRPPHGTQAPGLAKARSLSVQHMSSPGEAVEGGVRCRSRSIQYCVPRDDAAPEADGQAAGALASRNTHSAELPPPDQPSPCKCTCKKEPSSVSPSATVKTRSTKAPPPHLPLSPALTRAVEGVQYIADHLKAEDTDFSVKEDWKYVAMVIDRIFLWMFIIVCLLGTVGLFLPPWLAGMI
T1 sequence (P17787 26-502): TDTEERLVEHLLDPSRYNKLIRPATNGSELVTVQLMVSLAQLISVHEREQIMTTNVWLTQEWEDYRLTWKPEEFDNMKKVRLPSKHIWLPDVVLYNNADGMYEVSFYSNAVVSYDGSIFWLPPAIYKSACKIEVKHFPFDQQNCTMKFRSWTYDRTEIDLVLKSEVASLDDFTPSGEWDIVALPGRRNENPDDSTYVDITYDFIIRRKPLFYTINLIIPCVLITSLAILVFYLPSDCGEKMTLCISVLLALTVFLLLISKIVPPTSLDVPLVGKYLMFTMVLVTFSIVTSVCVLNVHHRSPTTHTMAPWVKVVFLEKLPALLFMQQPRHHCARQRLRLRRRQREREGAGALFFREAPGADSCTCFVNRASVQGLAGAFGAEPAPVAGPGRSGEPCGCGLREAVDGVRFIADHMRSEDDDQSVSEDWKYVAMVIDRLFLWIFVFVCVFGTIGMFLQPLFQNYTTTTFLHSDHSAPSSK

alph4beta2 nAChRs = molecular target: T2, alph4beta2 nAChRs (Homo sapiens, UniProt P17787+P43681); experiment: voltage-clamp recordings of xenopus oocytes heterologously expressing nAChR and lynx cRNA; type: cell-based; conditions: coexpressed with a4b2 nAChRs in oocytes, 1 mM ACh; for desensitization of ACh-evoked currents during agonist application: 20 sec; for fast time constant of desensitization / slow time constant of desensitization (plateau phase): two-exponential fit
T2 construct: expressed in transfected cells; host or cells: Xenopus oocytes injected with cRNA
T2 sequence (P43681 29-627 limits assumed): as the sequence (P43681 29-627 limits assumed) above
T2 sequence (P17787 26-502): as the sequence (P17787 26-502) above
Method: (§1) The inward currents were evoked by 20 sec periods of superfusion (horizontal calibration bar) with external saline containing 1 mM ACh. […] B and C. The differences in desensitization are shown with bar graphs. As described in (2), two exponentials equations were fitted to the desensitization currents during ACh application. Using these equations, fast (B) and slow (C) time constants were calculated and the average values of these constants for ACh responses are shown in B and C.
as §1, with “C).” for “C.”, “shown.” for “are shown in B and C.”

CNC1(C)C2CCC(C2)C1(C)C (centres unmarked) [mecamylamine]
effect on nicotine-induced currents (nAChRs; nAChR antagonist, recovered during wash out): blocked

CN1CCCC1c1cccnc1 (centres unmarked) [nicotine]
antinociceptive effect of nicotine, time on a hot-plate (pain sensitivity): enhanced sensitivity | decrease of EC50 for nicotine on loss of lynx1 (nAChRs; lynx1 null mutant vs wild-type): […] | EC50 (nAChRs; lynx1−/− mice): […] | half-maximal response time (decay of nicotine response) (nAChRs; neurons from lynx1−/− mice): […] | EC50 (nAChRs; wild-type mice): […] | half-maximal response time (decay of nicotine response) (nAChRs; wild-type neurons): […] | nicotine induced seizures, seizure index (scale of 1-8) (seizure activity): […] | acute Ca2+ response, fluorescence in real time ([1]; lynx1−/− cultures): significant increase | increase in fluorescence (steady state Ca2+ levels) ([1]; lynx1−/− cultures, 10 μm nicotine): 2 fold | nicotine concentration sufficient for activation of nAChRs and elevation of Ca2+ levels ([1]; lynx1−/− cultures, dose-response): […] | acute Ca2+ response, fluorescence in real time ([1]; wild-type cultures): not | change in steady state Ca2+ levels (fluorescence) ([1]; wild-type cultures, 10 μm nicotine): did not result in a significant change | change in fluorescence in dose-response measurements ([1]; wild-type cultures, any of the concentrations tested): no change in fluorescence | vacuolation in the striatum, nicotine solution vs saccharin (striatum; lynx1−/− mice): significant increase in vacuolation | vacuolation in the striatum, nicotine/saccharin vs saccharin (striatum; wild-type mice): no significant differences in vacuolation | rotarod performance relative to similarly treated wild-type mice (motor learning; lynx1−/− mice, 2nd day of training): significant improvement in rotarod performance | rotarod performance vs saccharin-treated mice (motor learning; wild-type mice, at least 6 weeks): this difference was not significant | neuroprotection against glutamate-mediated cell death ([2]; lynx1−/− neurons, nicotine pretreatment, glutamate): completely abolished | neuroprotection against glutamate-mediated cell death ([2]; wild-type neurons, 1 hour pretreatment of nicotine, 100 μM glutamate): protects wild-type neurons from cell death

lynx3: lynx family polypeptide with modulatory capacity on nAChRs; mouse lynx3 (SEQ ID NO:7)
association with nAChRs in co-immunoprecipitation (alpha4beta2 nAChRs): stable associations | desensitization of ACh-evoked currents during agonist application (alph4beta2 nAChRs): significantly faster desensitization | fast time constant of desensitization (alph4beta2 nAChRs): significantly faster | slow time constant of desensitization (plateau phase) (alph4beta2 nAChRs): remained the same

B1: ly6H: a lynx-related gene, a related family member, used as comparator (protein)
chain: LWCQDCTLANSSHCAPKQCQPTDTVCASVRITDPSSSRKDHSVNKMCASSCDFVKRHFFSDYLMGFINSGILKVDVDCCEKDLCN
association with nAChRs in co-immunoprecipitation (alpha4beta2 nAChRs): not | desensitization of ACh-evoked currents during agonist application (alph4beta2 nAChRs): no effect on desensitization | fast time constant of desensitization (alph4beta2 nAChRs): unaffected | slow time constant of desensitization (plateau phase) (alph4beta2 nAChRs): unaffected

B2: lynx2: lynx family polypeptide related to lynx1; mouse lynx2 (SEQ ID NO:5) (protein, listed as Mus musculus)
chain: MWVLGIAATFCGLFWLPGLALQIQCYQCEEFQLNNDCSSPEFIVNCTVNVQDMCQKEVMEQSAGIMYRKSCASSAACLIASAGYQSFCSPGKLNSVCISCCNTPLCNGPRPKKRGSSASAIRPGLLTTLLFFHLALCLAHC
association with nAChRs in co-immunoprecipitation (alpha4beta2 nAChRs): stable associations | desensitization of ACh-evoked currents during agonist application (alph4beta2 nAChRs): significantly faster desensitization | fast time constant of desensitization (alph4beta2 nAChRs): significantly faster | slow time constant of desensitization (plateau phase) (alph4beta2 nAChRs): remained the same
